Where a chain is given by its changes, count along the chain named. Where no end group is shown, it is not given here.
What was measured:
[1] = molecular target: T1, PAR-2Mut2 receptor (Homo sapiens, UniProt P55085); experiment: Calcium release direct measurement (FLIPR), CHO-NFAT-PAR-2Mut2 cells; type: cell-based
T1 construct: indeed comprising amino acids 43 to 397 of the precursor of human PAR-2; expressed in transfected cells
T1 sequence (P55085 43-397): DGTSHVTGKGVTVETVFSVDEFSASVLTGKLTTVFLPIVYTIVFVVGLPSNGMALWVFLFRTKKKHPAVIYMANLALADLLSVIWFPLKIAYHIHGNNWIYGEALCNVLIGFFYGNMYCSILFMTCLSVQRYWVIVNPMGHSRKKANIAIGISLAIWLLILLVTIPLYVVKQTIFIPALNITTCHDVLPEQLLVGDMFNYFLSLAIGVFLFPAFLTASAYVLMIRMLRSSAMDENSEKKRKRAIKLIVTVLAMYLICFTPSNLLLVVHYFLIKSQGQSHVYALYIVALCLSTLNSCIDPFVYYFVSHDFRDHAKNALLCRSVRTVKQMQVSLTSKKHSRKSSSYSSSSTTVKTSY
Description: (§1) The cells used for these tests were: CHO-NFAT-PAR-2-MUT2, CHO-NFAT-PAR-2-MUT3, CHO-NFAT-PAR2-WT and CHO-NFAT-WT.
(§2) The day before the experiment, the cells, were seeded into 384 well-plate in a medium DMEM glutamax (ref: 61965-026 Invitrogen, fetal calf serum 10% (ref: 10270106 Invitrogen), gentamycin 50 mg/ml 0.25% (ref: 15750-037 Invitrogen) at 25000 cells/well/50 μL.
(§3) The day of the experiment, the medium was discarded (by turning the plate). 50 μl of HBSS (Invitrogen réf: 14025.050), hepes (Invitrogen ref: 15630-05620 mM) were added to each well, HBSS was then discarded by turning the plate. 10 ml of Calcium kit loading solution and 10 ml HBSS, hepes 20 mM and 200 μl probenecid 250 μM were mixed and then 30 μl of this solution was added per well; plates were then incubated during 2 hours at 37° C. 4% CO2. 1.2 μl of a 250 μM compound in 25% DMSO to be tested and 3.8 μl HBSS, hepes 20 mM were added (on the Minitrak Va., Packard), the plates are transferred to the FLIPR and 25 μl 7.2 μM SLIGRL were added.
(§4) The dye is excited with the 488 nm excitation line of the argon laser and emits at 550 nm. The FLIPR quantifies the release of intracellular calcium in real time, the fluorescence is measured during 90 seconds.

[2] = molecular target: T1, PAR-2Mut2 receptor; experiment: Beta-lactamase reporter assay, CHO-NFAT-PAR-2Mut2 cells; type: cell-based; details: FIG. 6
Description: In a 96-well or 384-well microplate, […] the wild-type PAR-2 receptor (CHO-NFAT-PAR-2WT) or the CHO-NFAT cells expressing the PAR-2Mut2 receptor (CHO-NFAT-PAR-2mut2), in a proportion of 4×10^4 for a 96-well plate or 1×10^4 for a 384-well plate, for 4 hours, at 37° C., in an atmosphere containing 5% CO2 and in a modified Dulbecco medium (Lifetech, Gaithersburg, Md.) containing 100 μg/ml of gentamycin. The cells were placed in the dark for 1 hour at ambient temperature with 12 μM of CCF4-AM (Aurora Biosciences, San Diego, Calif.). The fluorescence was measured with a Fluostar fluorimeter (BMG, Germany). The excitation occurs at 405 nm and the emission is recorded at both 460 and 535 nm. The fluorescence ratio (460 nm/535 nm) is estimated after elimination of the background noise (medium without cells). The ED50 is considered to be the concentration of SLIGRL-NH2 necessary to achieve 50% of the maximum fluorescence ratio.
The CHO-NFAT-beta-lactamase cells stimulated with SLIGRL-NH2 in the medium mentioned above (4×10^4 cells/well) were used as control. All the reagents were added with the activating agent (chemical or referenced compounds), unless otherwise indicated.

[3] = test system: CHO-NFAT cells; experiment: Beta-lactamase reporter assay, CHO-NFAT control cells; type: cell-based
[4] = molecular target: T2, PAR-2Mut3 receptor (Homo sapiens, UniProt P55085); experiment: Calcium release direct measurement (FLIPR), CHO-NFAT-PAR2-Mut3 cells; type: cell-based
T2 construct: indeed comprising amino acids 57 to 397 of the precursor of human PAR-2; expressed in transfected cells
T2 sequence (P55085 57-397): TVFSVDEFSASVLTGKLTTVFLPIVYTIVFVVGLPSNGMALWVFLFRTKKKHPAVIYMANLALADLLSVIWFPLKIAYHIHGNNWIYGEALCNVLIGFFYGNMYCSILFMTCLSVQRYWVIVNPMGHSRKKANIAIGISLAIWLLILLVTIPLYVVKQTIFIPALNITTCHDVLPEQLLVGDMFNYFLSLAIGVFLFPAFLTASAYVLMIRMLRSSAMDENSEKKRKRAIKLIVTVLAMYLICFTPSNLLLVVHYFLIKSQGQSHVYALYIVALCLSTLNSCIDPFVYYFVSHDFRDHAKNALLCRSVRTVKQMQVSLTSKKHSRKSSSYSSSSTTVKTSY
Description: as §1, §2, §3, §4

[5] = test system: CHO-NFAT cells; experiment: Calcium release direct measurement (FLIPR), CHO-NFAT control cells; type: cell-based
Description: as §1
The day before the experiment, cells were seeded into 384 well-plate in a complete medium at 25000 cells/well/50 μL.
The day after, the medium was discarded (by turning the plate). 50 μl of HBSS, hepes 20 mM were added to each well, HBSS was then discarded by turning the plate. This was done twice.
10 ml of Calcium kit loading solution (solution prepared as described above) and 10 ml HBSS, hepes 20 mM and 200 μl probenecid 250 μM were mixed, and 30 μl of this solution per well were added, plates were incubated during 2 hours at 37° C. 5% CO2.
1.2 μl of compound to be tested (250 μM, 25% DMSO) and 3.8 μl HBSS, hepes 20 mM were added (on the Minitrak Va.). 25 μl 72 nM Trypsin was then added using the FLIPR.
The fluorescence was measured on the FLIPR as specified above.

[6] = molecular target: T3, wild-type PAR-2 receptor expressed on CHO-NFAT cells (CHO-NFAT-PAR-2WT) (human, UniProt P55085 37-397); experiment: cell-based or functional assay
T3 sequence (looked up): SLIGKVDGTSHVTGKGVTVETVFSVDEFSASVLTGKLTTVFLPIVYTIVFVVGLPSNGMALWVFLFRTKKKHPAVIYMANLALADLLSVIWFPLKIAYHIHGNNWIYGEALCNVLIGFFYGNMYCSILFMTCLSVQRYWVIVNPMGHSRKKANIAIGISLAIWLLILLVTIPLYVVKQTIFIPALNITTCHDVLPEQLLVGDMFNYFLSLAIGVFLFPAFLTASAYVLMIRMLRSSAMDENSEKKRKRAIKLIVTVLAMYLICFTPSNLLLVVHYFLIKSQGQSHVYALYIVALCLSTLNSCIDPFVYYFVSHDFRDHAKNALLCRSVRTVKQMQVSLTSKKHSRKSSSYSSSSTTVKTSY

[7] = molecular target: T4, truncated PAR-2 receptor PAR-2Mut2 expressed on CHO-NFAT cells (CHO-NFAT-PAR-2Mut2) (human, UniProt P55085 43-397); experiment: cell-based or functional assay
T4 sequence: T1 sequence (P55085 43-397) with G96A

SLIGRL [SLIGRL-NH2, synthetic ligand (Neosystème)]
Fluorescence after stimulation, compared with CHO-PAR2-WT cells ([1]; CHO-NFAT-PAR-2Mut2 cells, SLIGRL-NH2 0.1 μM to 100 μM): higher

trypsin
Activation of cells by trypsin (beta-lactamase fluorescence) [2]: not activated | Activation of cells by trypsin (beta-lactamase fluorescence) [3]: not activated | Activation of cells by trypsin (FLIPR calcium release) ([1]; CHO-NFAT-PAR2-MUT2 cells): not activated | Activation of cells by trypsin (FLIPR calcium release) [4]: not activated | Activation of cells by trypsin (FLIPR calcium release) [5]: not activated

SLIGRL-NH2 [SLIGRL-NH2 synthetic ligand]
ED50 (beta-lactamase reporter, fluorescence ratio 460 nm/535 nM) [6]: 10 µM | ED50 (beta-lactamase reporter, fluorescence ratio 460 nm/535 nM) [7]: 0.2 µM
